Source: the supplement of paper PMC10331698
± gives the standard deviation of the averaged measurements.

Tests used:
Test in all cases: LOEC (log10 uM (lowest observed effect concentration))
Perfluoropinacol = compound: OC(C(F)(F)F)(C(F)(F)F)C(O)(C(F)(F)F)C(F)(F)F [Perfluoropinacol]
Method: (§1)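 BioMAP Diversity Plus panel in human primary cell co-cultures, 4 concentrations in duplicate blinded samples. Responses are log10 fold change versus DMSO control, processed with tcpl v2.1.0. A hit is called when responses at any concentration exceed the cutoff (the larger of 3*bmad or log10(1.2)); the lowest observed effect concentration (modl_ga, log10 uM) is reported for hits.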

[1] = compound: OCCC(F)(F)C(F)(F)C(F)(F)C(F)(F)C(F)(F)C(F)(F)C(F)(F)C(F)(F)F [8:2 Fluorotelomer alcohol]
Method: as §1

[2] = compound: O=C(CC(=O)C(F)(F)C(F)(F)C(F)(F)F)c1cccs1 [(Perfluorobutyryl)-2-thenoylmethane]
Method: as §1

[3] = compound: FC(F)(I)C(F)(F)C(F)(F)C(F)(F)C(F)(F)C(F)(F)I [1,6-Diiodoperfluorohexane]
Method: as §1

[4] = compound: C=CC(=O)OCC(F)(F)C(F)(F)C(F)(F)C(F)(F)COC(=O)C=C [1H,1H,6H,6H-Perfluorohexane-1,6-diol diacrylate]
Method: as §1

[5] = compound: OCCCC(F)(F)C(F)(F)C(F)(F)C(F)(F)C(F)(F)C(F)(F)C(F)(F)C(F)(F)F [3-(Perfluorooctyl)propanol]
Method: as §1

| Test System | LOEC (log10 uM) (Perfluoropinacol) | LOEC (log10 uM) [1] | LOEC (log10 uM) [2] | LOEC (log10 uM) [3] | LOEC (log10 uM) [4] | LOEC (log10 uM) [5] |
| --- | --- | --- | --- | --- | --- | --- |
| KF3CT ICAM1 up | 1.78 | – | – | – | – | – |
| SAg MCP1 down | 1.54 ± 0.34 | 1.78 | 1.3 | 1.78 | 1.07 ± 0.32 | 1.54 ± 0.34 |
| hDFCGF CollagenI down | – | 1.78 | 1.3 | – | – | – |
| MyoF bFGF down | – | 1.3 | – | 0.845 | 1.3 | 1.3 |
| KF3CT MCP1 up | 1.3 | – | – | – | – | – |
| CASM3C MCSF down | 1.78 | 1.54 ± 0.34 | 1.78 | 1.3 | 1.07 ± 0.32 | 1.3 |
| 4H SRB down | 1.3 | 1.3 | 1.3 | 1.54 ± 0.34 | 1.3 | 1.3 |
| MyoF PAI1 down | 1.78 | 1.3 | – | 1.07 ± 0.32 | 1.3 | 1.3 |
| KF3CT IP10 down | 1.78 | 1.3 | – | 1.3 | 1.3 | 1.3 |
| LPS Eselectin down | 1.78 | 1.78 | – | 1.54 ± 0.34 | 1.3 | 0.845 |
| BF4T MMP1 down | – | – | 1.54 ± 0.34 | 1.78 | – | 1.78 |
| LPS PGE2 down | – | – | – | – | 1.3 | – |
| BE3C SRB down | 1.78 | 1.3 | 1.78 | 1.78 | – | 1.78 |
| BF4T CD90 down | – | – | – | – | – | 1.54 ± 0.34 |
| BE3C MMP1 down | – | – | 1.78 | – | – | – |
| LPS TissueFactor up | – | – | 1.3 | – | – | – |
| MyoF CollagenI down | 1.78 | 1.3 | 1.3 | 0.845 | 1.3 | 1.3 |
| SAg CD38 down | 1.3 | 1.3 | 1.07 ± 0.32 | 1.78 | 1.3 | 1.3 |
| MyoF IL8 down | – | 1.3 | – | 1.3 | 1.3 | 1.3 |
| KF3CT IL1a down | – | 1.3 | – | 1.3 | 1.54 ± 0.34 | 0.845 |
| MyoF TIMP1 down | – | 1.3 | – | 1.3 | 1.3 | 1.3 |
| BE3C tPA down | 1.3 | 1.3 | 1.3 | 1.78 | 1.54 ± 0.34 | 1.78 |
| MyoF MMP1 down | – | – | – | – | – | 1.3 |
| CASM3C LDLR down | – | 1.78 | 1.54 ± 0.34 | 1.54 ± 0.34 | – | 1.78 |
| 3C ICAM1 down | – | 1.78 | 1.78 | 1.78 | 1.54 ± 0.34 | 1.3 |
| CASM3C Thrombomodulin up | – | – | – | 1.3 | – | – |
| BE3C Keratin818 down | – | 1.54 ± 0.34 | 1.3 | 1.78 | – | 1.78 |
| CASM3C TissueFactor up | – | – | – | – | 1.78 | – |

| Test System | LOEC (log10 uM) (Perfluoropinacol) | LOEC (log10 uM) [1] | LOEC (log10 uM) [2] | LOEC (log10 uM) [3] | LOEC (log10 uM) [4] | LOEC (log10 uM) [5] |
| --- | --- | --- | --- | --- | --- | --- |
| BF4T IL1a down | – | – | 1.78 | 1.54 ± 0.34 | 1.78 | 1.78 |
| CASM3C MCP1 down | – | 1.78 | 1.78 | 1.3 | 1.78 | 1.54 ± 0.34 |
| 3C Thrombomodulin up | – | – | – | 1.54 ± 0.34 | – | – |
| MyoF SRB down | 1.78 | 1.3 | – | 0.845 | 1.3 | 1.3 |
| 4H MCP1 down | 1.54 ± 0.34 | – | 1.3 | 1.54 ± 0.34 | 1.78 | 1.78 |
| CASM3C IL6 down | – | – | 1.78 | 1.54 ± 0.34 | – | – |
| CASM3C TissueFactor down | – | 1.78 | 0.845 | – | – | 1.78 |
| LPS Thrombomodulin down | 1.07 ± 0.32 | – | – | – | – | – |
| LPS TissueFactor down | 1.78 | 1.78 | – | 1.78 | 1.3 | 1.31 ± 0.66 |
| BF4T uPA down | – | 1.78 | 1.54 ± 0.34 | 1.54 ± 0.34 | 1.78 | 1.54 ± 0.34 |
| 4H VEGFRII down | 1.54 ± 0.34 | 1.54 ± 0.34 | 1.3 | – | 1.54 ± 0.34 | 1.78 |
| CASM3C SAA down | – | 1.78 | 1.78 | 1.3 | 1.3 | 1.78 |
| BF4T IL8 down | – | – | – | 1.3 | – | 1.78 |
| hDFCGF SRB up | – | – | 0.845 | – | – | – |
| hDFCGF MCP1 up | 1.3 | – | – | – | – | – |
| LPS MCSF down | 1.3 | 1.04 ± 1 | – | 1.78 | 1.3 | 1.3 |
| 3C Eselectin down | 1.54 ± 0.34 | – | 1.78 | 1.54 ± 0.34 | 1.3 | 1.54 ± 0.34 |
| 3C MIG down | 1.78 | – | 1.78 | 1.78 | 1.3 | 1.78 |
| BF4T Keratin818 down | – | – | 1.3 | 1.78 | – | 1.54 ± 0.34 |
| MyoF Decorin down | 1.78 | 1.3 | – | 1.3 | 1.3 | 1.3 |
| BF4T MMP3 down | – | – | 1.54 ± 0.34 | 1.3 | – | 1.78 |
| CASM3C MCP1 up | 1.54 ± 0.34 | – | – | – | – | – |
| KF3CT uPA down | – | 1.3 | – | 1.3 | 1.3 | 1.3 |
| LPS IL8 down | – | 1.54 ± 0.34 | – | 1.54 ± 0.34 | 1.3 | 0.845 |
| CASM3C PAI1 down | – | 1.78 | – | 1.78 | 1.78 | 1.78 |
| CASM3C IL8 down | – | – | – | 1.54 ± 0.34 | – | 1.78 |
| MyoF CollagenIV down | – | – | – | – | 1.3 | – |
